Laboratory results published in patent US11104661B1, “Inhibiting human integrin (α-4) (β-7)” (Morphic Therapeutic, Inc., priority 2019, dated 2021).
Read-outs that look alike come from different tables or passages of the source.

Molecular target: T1, α4β7 (Homo sapiens, UniProt P13612+P26010)
T1 construct: endogenous in cells; host or cells: RPMI 8866 cells
T1 sequence (P13612 34-1032): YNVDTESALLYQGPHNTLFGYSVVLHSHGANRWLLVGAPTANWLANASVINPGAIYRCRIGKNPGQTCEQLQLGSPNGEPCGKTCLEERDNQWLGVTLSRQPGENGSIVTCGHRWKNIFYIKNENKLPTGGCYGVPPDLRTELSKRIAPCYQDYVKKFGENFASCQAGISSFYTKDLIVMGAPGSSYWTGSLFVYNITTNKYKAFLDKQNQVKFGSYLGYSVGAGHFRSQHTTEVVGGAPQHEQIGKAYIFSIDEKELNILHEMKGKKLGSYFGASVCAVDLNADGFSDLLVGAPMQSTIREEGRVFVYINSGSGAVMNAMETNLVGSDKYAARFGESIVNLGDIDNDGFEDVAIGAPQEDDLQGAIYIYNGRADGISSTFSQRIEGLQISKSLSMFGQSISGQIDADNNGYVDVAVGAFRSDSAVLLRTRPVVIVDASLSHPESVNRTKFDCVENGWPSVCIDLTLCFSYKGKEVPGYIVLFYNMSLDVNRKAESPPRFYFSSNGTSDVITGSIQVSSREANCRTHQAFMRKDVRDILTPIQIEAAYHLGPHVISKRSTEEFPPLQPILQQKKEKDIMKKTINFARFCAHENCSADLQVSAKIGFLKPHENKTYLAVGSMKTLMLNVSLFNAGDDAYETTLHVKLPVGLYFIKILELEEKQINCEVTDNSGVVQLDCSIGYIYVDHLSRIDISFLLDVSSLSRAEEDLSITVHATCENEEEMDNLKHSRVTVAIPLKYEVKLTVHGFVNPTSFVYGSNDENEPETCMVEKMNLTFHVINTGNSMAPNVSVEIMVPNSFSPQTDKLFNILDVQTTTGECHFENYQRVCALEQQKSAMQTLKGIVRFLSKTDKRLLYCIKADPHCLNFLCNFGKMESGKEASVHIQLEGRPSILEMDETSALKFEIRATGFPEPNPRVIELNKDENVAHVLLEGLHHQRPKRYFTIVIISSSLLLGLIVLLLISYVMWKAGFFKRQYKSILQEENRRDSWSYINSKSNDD
T1 sequence (P26010 20-798): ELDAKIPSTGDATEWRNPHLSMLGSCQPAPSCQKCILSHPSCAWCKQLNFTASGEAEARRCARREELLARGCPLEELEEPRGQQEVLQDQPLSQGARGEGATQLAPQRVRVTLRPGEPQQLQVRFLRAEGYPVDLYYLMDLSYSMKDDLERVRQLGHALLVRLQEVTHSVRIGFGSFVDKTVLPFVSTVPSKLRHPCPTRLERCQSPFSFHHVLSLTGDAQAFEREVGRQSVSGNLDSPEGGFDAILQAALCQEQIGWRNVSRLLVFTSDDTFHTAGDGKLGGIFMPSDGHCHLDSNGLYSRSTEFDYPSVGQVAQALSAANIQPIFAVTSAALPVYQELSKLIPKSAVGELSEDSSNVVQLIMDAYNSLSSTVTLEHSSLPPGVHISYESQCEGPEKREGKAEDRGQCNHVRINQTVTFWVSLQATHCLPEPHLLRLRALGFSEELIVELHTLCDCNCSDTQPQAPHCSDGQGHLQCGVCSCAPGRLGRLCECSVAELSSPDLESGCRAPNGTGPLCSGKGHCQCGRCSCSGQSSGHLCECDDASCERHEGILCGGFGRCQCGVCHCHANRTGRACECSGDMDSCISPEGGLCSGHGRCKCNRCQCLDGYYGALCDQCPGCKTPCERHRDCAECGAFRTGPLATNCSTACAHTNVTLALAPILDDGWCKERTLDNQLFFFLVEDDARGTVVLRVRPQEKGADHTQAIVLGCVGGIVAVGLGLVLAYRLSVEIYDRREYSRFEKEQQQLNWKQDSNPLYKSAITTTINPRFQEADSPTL
Assay: Cell-based MAdCAM-1 ligand binding assay (LBA) on RPMI 8866 cells (Example 6)
Details: MAdCAM-1-Fc Dylight 650, 3 mM manganese chloride, flow cytometry
From the text: Compounds of Formula (I) were further evaluated using a Ligand binding assay (LBA) to examine compound potency of free ligand binding to receptors expressed on cells. The MAdCAM ligand binding assay uses flow cytometry to measure the binding of fluorescently-labeled MAdCAM-1-Fc to RPMI 8866 cells in the presence of Mn++. This assay assesses the binding of compounds to native full-length receptors on the cell surface. […] Ligand binding assays (LBA) are used to examine compound potency and selectivity of free ligand binding to receptors expressed on cells.
Three in vitro assays were used to examine the α4β7 mechanistic process used by cells: 1) ligand:receptor affinity, 2) the avidity of those interactions on a cell's surface, and 3) how those interactions fare under an imposing force. In Example 5, a Fluorescence Polarization (FP) assay is used to measure compound activity through binding competition with the fluorescein-labeled peptide. In Example 6, the potency of compounds against α4β7 is measured in the cell-based ligand binding assay (LBA), using RPMI 8866 cells incubated with the compound samples in competition with soluble MAdCAM-1 ligand. In Example 7, activity of compounds is evaluated in a cell adhesion assay that mechanistically tests what occurs in vivo when trafficking cells utilize α4β7 to adhere to MAdCAM-1 expressing HEVs of the gut during the extravasation process. In the cell adhesion assay of Example 7, a MAdCAMI1-(Fc) is coated on plastic, and α4β7 expressing cells (RPMI-8866) are allowed to adhere to the coated surface in the presence of the test compounds. Next, the force of washing with buffer is applied to cells thereby testing the strength of that adhesion. Unattached cells are removed and the remaining adherent cells are quantified.
5 ul of 33 nM MAdCAM-1-Fc fluorescently labeled with Dylight 650 in 50 mM HEPES pH 7.3, 150 mM sodium chloride, and 1% bovine serum albumin was added to the cells. The samples were incubated for 45 minutes at room temperature, fixed with 0.8% formaldehyde for 30 minutes at room temperature, and washed with 50 mM Tris pH 7.5, 150 mM NaCl, 1 mM EDTA, and 1% bovine serum albumin. Fluorescence intensity for each cell was measured via flow cytometry. Dead cells were excluded from further analysis based on staining with the 780 fixable viability dye. Median fluorescence intensity for Dylight 650 was determined for each sample and concentration-response curves were analyzed for IC50 values using 4-parameter non-linear regression analysis.

[1] = Table 4 comparative compounds, read-out: LB Assay (Example 6)
[2] = Table 3, read-out: LB Assay (Example 6)

| Compound | IC50 [1] | IC50 [2] |
| --- | --- | --- |
| Cc1cccc(C)c1-c1cccc([C@H](CC(=O)O)NC(=O)[C@H](CC(C)C)n2cccc(CCN(C)C)c2=O)c1 | 10 to 500 nM | – |
| Cc1cccc(C)c1-c1cncc([C@H](CC(=O)O)NC(=O)[C@H](CC(C)C)n2ccc(C(F)(F)F)cc2=O)c1 | < 10 nM | – |
| Cc1ccn([C@@H](CC(C)C)C(=O)N[C@@H](CC(=O)O)c2cncc(-c3c(C)cccc3C)c2)c(=O)c1 | < 10 nM | – |
| Cc1cccc(C)c1-c1cncc([C@H](CC(=O)O)NC(=O)[C@H](CC(C)C)N2CC[C@@H](C(F)(F)F)CC2=O)c1 | 10 to 500 nM | – |
| CC(C)C[C@@H](C(=O)N[C@@H](CC(=O)O)c1ccc(-c2ccc(F)cc2)cc1)n1cc(CCN(C)C)c(C(F)(F)F)cc1=O | 10 to 500 nM | – |
| CC(C)C[C@@H](C(=O)N[C@@H](CC(=O)O)c1ccc(-c2ccc(F)cc2)cc1)n1cc(CCN2CC(F)C2)cc(F)c1=O | 10 to 500 nM | – |
| CC(C)C[C@@H](C(=O)N[C@@H](CC(=O)O)c1ccc(-c2ccccc2)cc1)n1cc(CCN2CC(F)C2)cc(F)c1=O | 10 to 500 nM | – |
| Cc1ccccc1-c1cccc([C@H](CC(=O)O)NC(=O)[C@H](CC(C)C)n2cccc(C)c2=O)c1 | 10 to 500 nM | – |
| CC(C)C[C@@H](C(=O)N[C@@H](CC(=O)O)c1ccc(-c2ccccc2)cc1)n1cc(CCN(C)C)c(C(F)(F)F)cc1=O | 10 to 500 nM | – |
| Cc1ccc([C@@H](C(=O)N[C@@H](CC(=O)O)c2cncc(-c3c(C)cccc3C)c2)N2CC(C)CCC2=O)cc1 (stereo partly shown) | 10 to 500 nM | – |
| COC[C@@H](C(=O)N[C@@H](CC(=O)O)c1cccc(-c2c(C)cccc2C)c1)n1ccc(C)cc1=O | 10 to 500 nM | – |
| Cc1cc(-c2c(C)ccc(F)c2C)cc([C@H](CC(=O)O)NC(=O)C(CC(C)C)n2cc(CCN3CCC3)c(C(F)(F)F)cc2=O)c1F (single isomer, unassigned) [AF-P2] | – | < 10 nM |
| COc1ccc(C)c(-c2cc(C)c(F)c([C@H](CC(=O)O)NC(=O)C(CC(C)C)n3cc(CCN4CCC4)c(C(F)(F)F)cc3=O)c2)c1C (single isomer, unassigned) [AG-P2] | – | < 10 nM |
| Cc1cc(-c2c(C)cccc2C)cc([C@H](CC(=O)O)NC(=O)C(CC(C)C)n2cc(CCN3CC[C@@H](F)C3)cc(F)c2=O)c1F (single isomer, unassigned) [AU-P2] | – | < 10 nM |

More lines, now with the values ahead:

| IC50 [1] | IC50 [2] | Compound |
| --- | --- | --- |
| < 10 nM | – | Cc1cccc(C)c1-c1cccc([C@H](CC(=O)O)NC(=O)[C@H](CC(C)C)n2cc(CCN(C)C)ccc2=O)c1 |
| < 10 nM | – | Cc1cccc(C)c1-c1cccc([C@H](CC(=O)O)NC(=O)[C@H](CC(C)C)n2ccc(CCN(C)C)cc2=O)c1 |
| < 10 nM | – | Cc1cccc(C)c1-c1cccc([C@H](CC(=O)O)NC(=O)[C@H](CC(C)C)n2cc(CN3CC[C@@H](F)C3)ccc2=O)c1 |
| < 10 nM | – | Cc1cccc(C)c1-c1cncc([C@H](CC(=O)O)NC(=O)[C@H](CC(C)C)n2cc(CN3CC(F)C3)ccc2=O)c1 |
| < 10 nM | – | Cc1cccc(C)c1-c1cccc([C@H](CC(=O)O)NC(=O)[C@H](CC(C)C)n2cc(CN3CC(F)C3)ccc2=O)c1 [drawing 572] |
| < 10 nM | – | Cc1cccc(C)c1-c1cccc([C@H](CC(=O)O)NC(=O)[C@H](CC(C)C)n2cc(CN3CC(F)C3)ccc2=O)c1 [drawing 577] |
| < 10 nM | – | Cc1cccc(C)c1-c1cccc([C@H](CC(=O)O)NC(=O)[C@H](CC(C)C)n2cc(CN3CC(F)C3)ccc2=O)c1 [drawing 585] |
| < 10 nM | – | Cc1cccc(C)c1-c1cccc([C@H](CC(=O)O)NC(=O)[C@H](CC(C)C)n2cc(CN3CC(F)C3)ccc2=O)c1 [drawing 589] |
| < 10 nM | – | Cc1cccc(C)c1-c1cccc([C@H](CC(=O)O)NC(=O)[C@H](CC(C)C)n2cc(CN3CC(F)C3)ccc2=O)c1 [drawing 594] |
| < 10 nM | – | Cc1cccc(C)c1-c1cccc([C@H](CC(=O)O)NC(=O)[C@H](CC(C)C)n2cc(CN3CC(F)C3)ccc2=O)c1 [drawing 599] |
| < 10 nM | – | Cc1cccc(C)c1-c1cccc([C@H](CC(=O)O)NC(=O)[C@H](CC(C)C)n2cc(CN3CC(F)C3)ccc2=O)c1 [drawing 604] |
